Results on 35 compounds are retold here after patent US20250313563A1, “GLYCOGEN SYNTHASE KINASE 3 INHIBITORS AND USES THEREOF” (The Broad Institute, Inc., priority 2022, published 2025).

SMILES strings stand for the structures. Where two headings read alike, the source gives them in different places.

The target of assay [1] is GSK3b (GST-full length GSK3b) (Homo sapiens (Human), UniProt P49841). Briefly: GSK3b TR-FRET kinase assay. It counts as biochemical. The method, boiled down: (§1)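 Full-length GST-tagged human enzyme (1 nM) is exposed to test compound for 30 min before substrates are added. Phosphorylation of a primed biotinylated glycogen synthase peptide proceeds 100 min at room temperature at low ATP (4 μM α; 2 μM β) or high ATP (1 mM). Product is quantified by TR-FRET.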

Assay [2] addresses GSK3α (GST-full length GSK3α) (Homo sapiens (Human), UniProt P49840). Description: GSK3α TR-FRET kinase assay. In kind it is biochemical. In a few lines: as §1
Where [3] appears, read: 1 nM GSK3b, 2 μM ATP, 30 minute preincubation, Table 16, read-out: GSK3-B TR-FRET BIOCHEMICAL (TR-FRET).
The mark [4] stands for this setting: 1 nM GSK3α, 4 μM ATP, 30 minute preincubation, Table 16, read-out: GSK3-A TR-FRET BIOCHEMICAL (TR-FRET).
Setting [5] is: read-out: GSK3-B (TR-FRET 1 mM ATP), GMean, IC50, 1 mM ATP, geometric mean.
Setting [6] is: read-out: GSK3-A (TR-FRET 1 mM ATP), GMean, IC50, 1 mM ATP, geometric mean.
[7] abbreviates: 1 nM GSK3b, 2 μM ATP, 30 minute preincubation, Table 16, read-out: GSK3-B TR-FRET BIOCHEMICAL (TR-FRET), IC50.
[8] abbreviates: 1 nM GSK3α, 4 μM ATP, 30 minute preincubation, Table 16, read-out: GSK3-A TR-FRET BIOCHEMICAL (TR-FRET), IC50.
The mark [9] stands for this setting: 1 nM GSK3b, 2 μM ATP, 30 minute preincubation, read-out: GSK3-B TR-FRET BIOCHEMICAL (TR-FRET), IC50.
Setting [10] is: 1 nM GSK3α, 4 μM ATP, 30 minute preincubation, read-out: GSK3-A TR-FRET BIOCHEMICAL (TR-FRET), IC50.
The mark [11] stands for this setting: GSK3-B (TR-FRET 1 mM ATP), GMean, IC50, 1 mM ATP, geometric mean.
[12] abbreviates: GSK3-A (TR-FRET 1 mM ATP), GMean, IC50, 1 mM ATP, geometric mean.

Chain of GSK3α (GST-full length GSK3α) (P49840 whole entry): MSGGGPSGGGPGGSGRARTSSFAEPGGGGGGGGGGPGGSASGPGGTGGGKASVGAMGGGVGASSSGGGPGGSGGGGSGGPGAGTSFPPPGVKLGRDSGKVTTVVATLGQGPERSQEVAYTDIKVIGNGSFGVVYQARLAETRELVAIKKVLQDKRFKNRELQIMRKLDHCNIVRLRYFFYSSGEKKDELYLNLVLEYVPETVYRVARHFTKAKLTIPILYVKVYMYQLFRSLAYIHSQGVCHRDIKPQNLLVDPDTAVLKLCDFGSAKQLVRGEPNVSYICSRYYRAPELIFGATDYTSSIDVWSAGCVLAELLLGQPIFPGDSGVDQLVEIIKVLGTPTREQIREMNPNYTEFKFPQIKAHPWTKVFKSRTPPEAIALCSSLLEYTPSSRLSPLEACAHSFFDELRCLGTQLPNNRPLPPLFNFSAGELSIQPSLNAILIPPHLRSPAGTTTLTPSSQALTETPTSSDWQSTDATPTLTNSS
Chain of GSK3b (GST-full length GSK3b) (P49841 whole entry): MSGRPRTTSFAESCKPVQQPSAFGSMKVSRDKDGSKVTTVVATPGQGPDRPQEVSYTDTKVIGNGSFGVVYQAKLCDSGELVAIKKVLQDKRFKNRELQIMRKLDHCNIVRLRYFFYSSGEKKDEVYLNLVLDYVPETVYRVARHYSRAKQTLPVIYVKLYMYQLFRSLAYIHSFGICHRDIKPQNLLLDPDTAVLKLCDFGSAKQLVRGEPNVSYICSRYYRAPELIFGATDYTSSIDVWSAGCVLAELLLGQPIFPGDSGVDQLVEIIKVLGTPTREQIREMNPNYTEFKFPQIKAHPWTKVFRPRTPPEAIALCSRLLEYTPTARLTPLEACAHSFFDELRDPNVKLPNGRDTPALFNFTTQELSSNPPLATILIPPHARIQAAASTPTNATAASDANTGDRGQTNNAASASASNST

In the case of `CC[C@]1(c2cccc(-c3ccncc3F)c2)C2=C(CC(C)(C)CC2=O)Nc2n[nH]cc21` [Compound 943519], the IC50 fell in the range of 1 to 5 µM in assay [1] (setting [3]) and 0.1 to 1 µM in assay [2] (setting [4]).
With `CCC1(c2cccc(-c3cnc(C)n3C)c2)C2=C(CC(C)(C)CC2=O)Nc2n[nH]cc21` (centres unmarked) [Compound 943531], the IC50 in assay [1] (setting [3]) was 0.1 to 1 µM; in assay [1] (setting [5]), > 5 µM; in assay [2] (setting [4]) it was ≤ 0.1 µM; in assay [2] (setting [6]) it was 0.1 to 1 µM.
As to `CCC1(c2cccc(-c3ncnn3C)c2)C2=C(CC(C)(C)CC2=O)Nc2n[nH]cc21` (centres unmarked) [Compound 943532], the values for the IC50 in assay [1] (setting [3]) and in assay [2] (setting [4]) were 0.1 to 1 µM and ≤ 0.1 µM, respectively.
The like results for `CCC1(c2cccc(-c3cncn3C)c2)C2=C(CC(C)(C)CC2=O)Nc2n[nH]cc21` (centres unmarked) [Compound 943533] were, in that order, ≤ 0.1 µM and ≤ 0.1 µM.
As to `CCC1(c2cccc(-c3ccnc4c3CCC4)c2)C2=C(CC(C)(C)CC2=O)Nc2n[nH]cc21` (centres unmarked) [Compound 943534], the IC50 in assay [1] (setting [3]) and in assay [2] (setting [4]) was ≤ 0.1 µM each time.
Consider `CCC1(c2cccc(-c3cnc4n3CCCC4)c2)C2=C(CC(C)(C)CC2=O)Nc2n[nH]cc21` (centres unmarked) [Compound 943535], for which the IC50 in assay [1] (setting [3]) and in assay [2] (setting [4]) was ≤ 0.1 µM throughout.
As to `CCC1(c2cccc(N(C)c3cc(C)ccn3)c2)C2=C(CC(C)(C)CC2=O)Nc2n[nH]cc21` (centres unmarked) [Compound 943537], the IC50 in assay [1] (setting [3]) is 0.1 to 1 µM; in assay [2] (setting [4]), ≤ 0.1 µM.
As for `CCC1(c2cccc(-c3ccncc3CO)c2)C2=C(CC(C)(C)CC2=O)Nc2n[nH]cc21` (centres unmarked) [Compound 943539], the IC50 in assay [1] (setting [3]) and in assay [2] (setting [4]) was ≤ 0.1 µM throughout.
On to `CCC1(c2cccc(-c3ccnc(CO)c3)c2)C2=C(CC(C)(C)CC2=O)Nc2n[nH]cc21` (centres unmarked) [Compound 943540], for which the figures for the IC50 in assay [1] (setting [3]) and in assay [2] (setting [4]) were 0.1 to 1 µM and ≤ 0.1 µM, respectively.
As to `CCC1(c2cccc(S(=O)(=O)C3CCCCC3)c2)C2=C(CC(C)(C)CC2=O)Nc2n[nH]cc21` (centres unmarked) [Compound 943541], the IC50 in assay [1] (setting [3]) is ≤ 0.1 µM; in assay [1] (setting [5]), 1 to 5 µM; in assay [2] (setting [4]) it was ≤ 0.1 µM; in assay [2] (setting [6]), 0.1 to 1 µM.
In the case of `CC1(C)CC(=O)C2=C(C1)Nc1n[nH]cc1C21CN(S(=O)(=O)Cc2ccccc2)C1` [Compound 943543], the IC50 in assay [1] (setting [3]) and in assay [2] (setting [4]) was ≤ 0.1 µM in each case.
In the case of `COCCN1CC2(C1)C1=C(CC(C)(C)CC1=O)Nc1n[nH]cc12` [Compound 943544], the IC50 in assay [1] (setting [7]) and in assay [2] (setting [8]) was > 5 µM in each case.
For `CC1(C)CC(=O)C2=C(C1)Nc1n[nH]cc1C21CN(CC2CCOCC2)C1` [Compound 943545], the IC50 in assay [1] (setting [7]) and in assay [2] (setting [8]) was > 5 µM in each case.
Consider `CC[C@]1(c2cccc(S(=O)(=O)CCOC)c2)C2=C(CC(C)(C)CC2=O)Nc2n[nH]cc21` [Compound 943546], for which the IC50 is > 5 µM in assay [1] (setting [3]) and 1 to 5 µM in assay [2] (setting [4]).
As to `CCC1(c2cccc(S(=O)(=O)C3CCCCC3)c2)C2=C(CC(C)(C)CC2=O)Nc2n[nH]cc21` (centres unmarked) [Compound 943547], the IC50 in assay [1] (setting [3]) was > 5 µM; in assay [2] (setting [4]), 1 to 5 µM.
For the compound `CC1(C)CC(=O)C2=C(C1)Nc1n[nH]cc1C21CCC(n2cnnc2)CC1` (centres unmarked) [Compound 943894], the IC50 in assay [1] (setting [3]) was 0.1 to 1 µM; in assay [2] (setting [4]) it was ≤ 0.1 µM.
For `Cc1noc(C2CCC3(CC2)C2=C(CC(C)(C)CC2=O)Nc2n[nH]cc23)n1` (centres unmarked) [Compound 943895] the same measures were 0.1 to 1 µM and 0.1 to 1 µM.
For the compound `C[C@H]1C[C@@H]2C[C@]3(C[C@@H]2C1)C1=C(CC(C)(C)CC1=O)Nc1n[nH]cc13` [Compound 943896], the IC50 in assay [1] (setting [9]) and in assay [2] (setting [10]) was ≤ 0.1 µM throughout.
In the case of `C[C@@H]1C[C@@H]2C[C@]3(C[C@@H]2C1)C1=C(CC(C)(C)CC1=O)Nc1n[nH]cc13` [Compound 943898], the IC50 in assay [1] (setting [9]) and in assay [2] (setting [10]) was ≤ 0.1 µM throughout.
For `CCC1(c2cccc(-c3cnn(C)c3)c2)C2=C(CC(C)(C)NC2=O)Nc2n[nH]cc21` (centres unmarked) [Compound 943912], the IC50 in assay [1] (setting [9]) was 1 to 5 µM; in assay [2] (setting [10]), ≤ 0.1 µM.
Regarding `CC[C@]1(c2cccc(-c3ccncc3C(F)(F)F)c2)C2=C(CC(C)(C)CC2=O)Nc2n[nH]cc21` [Compound 943913], the IC50 is ≤ 0.1 µM in assay [1] (setting [3]), 0.1 to 1 µM in assay [1] (setting [5]), ≤ 0.1 µM in assay [2] (setting [4]) and ≤ 0.1 µM in assay [2] (setting [6]).
As for `CC1(C)CC(=O)C2=C(C1)Nc1n[nH]cc1C21CN(CC2CCCC2)C1` [Compound 943914], the IC50 in assay [1] (setting [7]) and in assay [2] (setting [8]) was > 5 µM in each case.
As to `CC[C@]1(c2cccc(-c3ccnc(C(F)F)c3)c2)C2=C(CC(C)(C)CC2=O)Nc2n[nH]cc21` [Compound 943919], the IC50 in assay [1] (setting [3]) was 0.1 to 1 µM; in assay [2] (setting [4]) it was ≤ 0.1 µM.
Take `CC1(C)CC(=O)C2=C(C1)Nc1n[nH]cc1[C@@]21COC2(CN(C(=O)c3ccccc3)C2)C1` [Compound 943955]: the IC50 in assay [1] (setting [9]) and in assay [2] (setting [10]) was ≤ 0.1 µM throughout.
As for `CC1(C)CC(=O)C2=C(C1)Nc1n[nH]cc1C21COC2(CN(C(=O)c3ccccc3)C2)C1` (centres unmarked) [Compound 943956], the values for the IC50 in assay [1] (setting [9]) and in assay [2] (setting [10]) were 1 to 5 µM and 0.1 to 1 µM, respectively.
For `CC1(C)CC(=O)C2=C(C1)Nc1n[nH]cc1C21COC2(CN(C(=O)C3CCCC3)C2)C1` (centres unmarked) [Compound 943958] the same measures were 1 to 5 µM and 0.1 to 1 µM.
For `CC1(C)CC2=C(C(=O)N1)C1(CCN(S(C)(=O)=O)CC1)c1c[nH]nc1N2` [Compound 943959] the same measures were 0.1 to 1 µM and ≤ 0.1 µM.
Take `CC1(C)CC2=C(C(=O)N1)C1(CCN(S(=O)(=O)C3CCCC3)CC1)c1c[nH]nc1N2` [Compound 943960]: the IC50 in assay [1] (setting [9]) is ≤ 0.1 µM; in assay [1] (setting [11]) it was 0.1 to 1 µM; in assay [2] (setting [10]), ≤ 0.1 µM; in assay [2] (setting [12]), 0.1 to 1 µM.
Take `Cn1ccc(S(=O)(=O)N2CCC3(CC2)C2=C(CC(C)(C)NC2=O)Nc2n[nH]cc23)n1` [Compound 943961]: the IC50 in assay [1] (setting [3]) was ≤ 0.1 µM; in assay [1] (setting [9]), ≤ 0.1 µM; in assay [1] (setting [11]) it was > 5 µM; in assay [2] (setting [4]), ≤ 0.1 µM; in assay [2] (setting [10]), ≤ 0.1 µM; in assay [2] (setting [12]), 0.1 to 1 µM.
Take `COc1cccc(S(=O)(=O)N2CCC3(CC2)C2=C(CC(C)(C)CC2=O)Nc2n[nH]cc23)c1` [Compound 943962]: the IC50 in assay [1] (setting [3]) is 0.1 to 1 µM; in assay [1] (setting [9]), 0.1 to 1 µM; in assay [2] (setting [4]), ≤ 0.1 µM; in assay [2] (setting [10]) it was ≤ 0.1 µM.
On to `CC1(C)CC2=C(C(=O)N1)C1(CCN(S(=O)(=O)c3ccc(F)cc3)CC1)c1c[nH]nc1N2` [Compound 943963], for which the IC50 in assay [1] (setting [9]) and in assay [2] (setting [10]) was ≤ 0.1 µM each time.
Turning to `CC[C@@]1(c2cccc(N(C)c3ncccn3)c2)C2=C(CC(C)(C)NC2=O)Nc2n[nH]cc21` [Compound 943964], the IC50 in assay [1] (setting [9]) is ≤ 0.1 µM; in assay [1] (setting [5]), 1 to 5 µM; in assay [2] (setting [10]), ≤ 0.1 µM; in assay [2] (setting [6]), 0.1 to 1 µM.
With `CC[C@]1(c2cccc(N(C)c3ncccn3)c2)C2=C(CC(C)(C)NC2=O)Nc2[nH]ncc21` [Compound 943965], the IC50 in assay [1] (setting [9]) was > 5 µM; in assay [2] (setting [10]) it was 0.1 to 1 µM.
For `CCC1(c2cccc(-c3cc(C)nn3C)c2)C2=C(CC(C)(C)NC2=O)Nc2n[nH]cc21` (centres unmarked) [Compound 943966] the same measures were 0.1 to 1 µM and ≤ 0.1 µM.
As to `CC[C@]1(c2cccc(-c3cc(C)nn3C)c2)C2=C(CC(C)(C)NC2=O)Nc2n[nH]cc21` [Compound 943967], the IC50 in assay [1] (setting [9]) and in assay [2] (setting [10]) was > 5 µM throughout.
